Reference: article PMC12040169 (PLOS Biology, 2025)

assay: in vitro; conditions: human, hela cells, % viability

In order of falling viability at 28.5 h, 10 µM:
1. COc1ccc(CCNC(=O)c2cnoc2-c2ccc(C)cc2)cc1 [CBK153731]  119%
2. CCc1nc(CN(C)C2CCN(CC(=O)NCc3ccco3)C2)no1 (centres unmarked) [CBK305328]  111%
3. COc1ccc2c(c1)CC(C(=O)N1CCc3sccc3C1c1cccs1)CO2 (centres unmarked) [CBK285628]  110%
4. O=C(NCc1nc(-c2ccccc2)no1)C(c1cccs1)c1cccs1 [CBK286340]  109%
5. Cc1cc(C)c(S(=O)(=O)Nc2ccc(S(=O)(=O)Nc3ccc(Cl)cc3Cl)cc2)c(C)c1 [CBK266022]  109%
6. COc1ccc(CCNC(=O)N(CCC#N)C2CCCCC2)cc1OC [CBK156363]  108%
7. COc1cc(Nc2cccc(-c3ccco3)n2)cc(OC)c1OC [CBK037724]  108%
8. CCCc1ccc(S(=O)(=O)N2CCN(Cc3ccc4c(c3)OCO4)CC2)cc1 [CBK074735]  107%
9. Cc1cc(C[C@@H]2COC[C@H]2NCc2ccc(C(F)(F)F)cc2)on1 [CBK285463]  107%
10. CCc1onc(C)c1C(=O)NCC1CCCCN1CC(C)C (centres unmarked) [CBK305124]  106%
11. O=C(Nc1cccnc1)c1ncoc1-c1ccc(F)cc1 [CBK104357]  106%
12. CN(c1cccc(C#N)c1)C1CCN(c2nccn(C)c2=O)C1 (centres unmarked) [CBK304718]  105%
13. Cc1nc(C(=O)N(CCO)Cc2ccccc2)cs1 [CBK304810]  105%
14. CN(C(=O)CN1CCN(c2cc(-c3cc(C(F)(F)F)cc(C(F)(F)F)c3)ncn2)CC1)c1ccccc1 [CBK091125]  103%
15. O=S(=O)(N1CCOCC1)N1CCN(CC(O)COc2ccc3cc(Br)ccc3c2)CC1 (centres unmarked) [CBK268840]  103%
16. NC(=O)CN1CCC[C@@H]2NC(=O)COc3ccccc3C(=O)N[C@@H]3CCOC[C@@H]3C/C=C/C[C@@H]21 [CBK292041]  103%
17. CC(C)Cn1c(=O)c(C(=O)Nc2cccc(Cl)c2)c(O)c2ccccc21 [CBK159967]  103%
18. Clc1cccc(-c2cccc(Nc3cccnc3)n2)c1Cl [CBK037800]  102%
19. COc1cc(-c2cc(N3CCN(CCN4CCCC4)CC3)ncn2)cc(OC)c1OC [CBK037841]  102%
20. CC(=O)N(Cc1ccccc1)c1ccc(C(=O)O)cc1 [CBK286882]  102%
21. CC(C)[C@H](CO)Nc1nc(-c2cccc3ccccc23)cnc1N [CBK063701]  101%
22. CS(=O)(=O)N1CC2(CCN(CC3COc4ccccc4O3)CC2)c2ccccc21 (centres unmarked) [CBK115461T]  101%
23. O=C1CCCN1c1ccc(S(=O)(=O)NC2C3CCCCC32)cc1 (centres unmarked) [CBK282842]  101%
24. COc1cccc(CN2CCCC(c3nc(C)n4ccccc34)C2)c1 (centres unmarked) [CBK282989]  101%
25. OCCNc1nc2cc(Cl)ccc2[nH]1 [CBK262295]  101%
26. CC(=O)Nc1ccc(-c2cncc(N3CCN(C(=O)c4ccco4)CC3)n2)cc1 [CBK066065]  99.3%
27. O=C(CSc1nccn1C1CC1)Nc1ccc(CN2CCOCC2)cc1 [CBK306071]  98.9%
28. Cc1nc2ccc(NC(=O)N3CCC(c4ccccc4)C3)cc2s1 (centres unmarked) [CBK266512]  98.8%
29. CCCNC(=O)c1sc(Nc2ccc(Cl)cn2)nc1C [CBK287850]  98.4%
30. COc1ncc(-c2cncc(NCCc3ccccn3)n2)c(OC)n1 [CBK065287]  97.7%
31. CCN(CC)C(=O)[C@@H](C)C1CC[C@@]2(C)CC[C@H](NC(=O)C3CC3)[C@@H](C)[C@@H]2[C@H]1O (some centres unmarked) [CBK289443]  97.5%
32. O=C(Nc1cccnc1)N1CCCCC1CO (centres unmarked) [CBK155990]  96.9%
33. O=C(NCCN1CCOCC1)c1cc(-c2ccc(Cl)cc2)nc2ccccc12 [CBK262650]  96.6%
34. O=S(=O)(Cc1ccccc1)NCc1ccccn1 [CBK262241]  96.2%
35. c1ccc(OCCOc2nccnc2-c2ccc3c(c2)OCO3)cc1 [CBK106714]  96.1%
36. CC(=O)NC(Cc1c[nH]c2ccccc12)C(=O)O (centres unmarked) [CBK217373]  95.9%
37. Cc1noc2nc(C3CCN(C(=O)C4CC4)CC3)cc(C(F)F)c12 [CBK285306]  95.8%
38. O=C1NN=C(Cc2ccccc2)C1c1ccccc1 (centres unmarked) [CBK067757]  95.6%
39. Cc1cc(C)nc(N2CCC(CC(=O)N3CCCCC3CN3CCCC3)CC2)n1 (centres unmarked) [CBK286254]  95.6%
40. Cc1cc2c(cc3c(=O)n(CCN4CCCC4)nc(C)n32)s1 [CBK284126]  95.5%
41. Brc1ccccc1OCCc1ccccc1 [CBK004519]  95.4%
42. COc1ccc(Nc2cc(-c3cc(OC)c(OC)c(OC)c3)ncn2)c(OC)c1 [CBK090759]  95.4%
43. COc1ccc(C(NC(=O)c2c(C)nc3sccn23)C2CC(O)C2)cn1 (centres unmarked) [CBK307330]  95.3%
44. O=C(Nc1ccc(F)cc1)c1[nH]c2ccccc2c1NS(=O)(=O)c1cc(Cl)sc1Cl [CBK050094]  95%
45. COCc1cccc(-c2ncc(OCCN3CCCC3=O)nc2NC(C)=O)c1 [CBK145239]  94.8%
46. Cc1cc(C)n(CCCn2cncc2-c2cn(C)nc2C)n1 [CBK281772]  94.8%
47. CC(C)(C)OC(=O)NCCc1ccc(Nc2cc(-c3cc4ccccc4s3)ncn2)cc1 [CBK090959]  94.3%
48. c1coc(COc2cncc(N3CCNCC3)n2)c1 [CBK013393]  94.2%
49. COc1c(C)cc(S(=O)(=O)NCCN2CCOCC2)c(C)c1C [CBK269893]  94.1%
50. CCOC(=O)c1ccc(N2CCN(C(C)=O)CC2)c(NC(=O)c2cccc(F)c2)c1 [CBK270263]  93.8%
51. Cc1cc(C(F)(F)F)n2ncc(C(=O)N3CCCC3c3ccco3)c2n1 (centres unmarked) [CBK306557]  93.5%
52. Cc1cccc(CC(=O)N2CCC(Cc3ccccc3-c3ccccc3C)(C(N)=O)CC2)c1 [CBK285728]  93.4%
53. CN(C)CCN1CCN(c2cc(Nc3ccc(N(C)C)cc3)nc3ccnn23)CC1 [CBK037211]  93.4%
54. Cc1nn(Cc2cccc3ccccc23)c(C)c1NC(=O)c1ccncc1 [CBK269990]  93.4%
55. CSc1cccc(CN(C)C(=O)c2cc(C#N)c(=O)[nH]c2C)c1 [CBK306839]  93%
56. COc1ccc(-c2nc(NCc3ccccc3)n(C(=O)c3ccc([N+](=O)[O-])cc3)n2)cc1 [CBK268265]  92.8%
57. CCN(CC)C(=O)C1CCCN(Cc2cccc(Oc3ccccc3)c2)C1 (centres unmarked) [CBK261581]  92.6%
58. CCN(CCc1ccccn1)S(=O)(=O)c1ccc(OC(F)(F)F)cc1 [CBK044968]  92.4%
59. CCCC(=O)Nc1ccc(C(=O)O)cc1NC(=O)CCC [CBK286939]  92.3%
60. c1cc(CSc2nnc(-c3ccncc3)o2)ccn1 [CBK270235]  92.3%
61. CC(NS(=O)(=O)c1ccc(OCC(=O)N2CCc3ccccc3C2)c(Cl)c1)c1ccccc1 (centres unmarked) [CBK269117]  92%
62. CCCCC1C(=O)N(C)CCN1C(=O)NCc1cn2ccc(C)cc2n1 (centres unmarked) [CBK306648]  91.8%
63. CN1CCN(C(=O)Nc2cccc(-c3nc(-c4ccc(C#N)cc4)cnc3N)c2)CC1 [CBK116251]  91.7%
64. CC(=O)NCCNC(=O)c1ccc(-c2ccccc2)nc1NCCc1ccccn1 [CBK076595]  91.3%
65. Cc1cc(C)nc(Nc2ncc(O)n2-c2ccccc2C)n1 [CBK263024]  91.2%
66. O=[N+]([O-])c1ccccc1CN1C[C@H](O)C[C@H]1c1nc(-c2ccncc2)no1 [CBK288839]  91.2%
67. CC(=O)Nc1ccc(S(=O)(=O)N2CCN(C(=O)COc3ccc(C)cc3)CC2)cc1 [CBK264268]  91%
68. CC(=O)c1c(C(C)=O)c(C)n(-c2ccc(C(=O)O)cc2)c1C [CBK287036]  90.9%
69. NCCN(Cc1cccc(Cl)c1)C(=O)NC(c1ccccc1)c1ccccc1 [CBK046203C]  90.8%
70. COC(=O)c1c(NC(=S)Nc2ccccc2)sc(Cc2ccccc2)c1C [CBK263501]  90.6%
71. Cc1ccc(Oc2ccc(S(=O)(=O)N3CCOCC3)cc2C(=O)O)cc1 [CBK286748]  90.4%
72. C[C@H](Nc1cncc(-c2ccc3c(c2)OCO3)n1)c1ccccc1 [CBK065962]  90.3%
73. Cc1cccc(C)c1NC(=O)Nc1ccc(F)cc1F [CBK300526]  90.2%
74. Cc1cc(C)n2nc(NC(=O)C(C)Oc3ccccc3)nc2n1 (centres unmarked) [CBK270039]  89.9%
75. CCN(Cc1cn2ccc(C)cc2n1)CC1CCOCC1 [CBK306680]  89.7%
76. CCn1c(=O)n(CC(=O)N2CCc3ccccc32)c2cccnc21 [CBK283826]  89.4%
77. Cc1nn(C(C)C(=O)Nc2cc(C(F)(F)F)ccc2Cl)c(C)c1[N+](=O)[O-] (centres unmarked) [CBK268697]  88.5%
78. Cc1nn(C)cc1S(=O)(=O)N1CCCC(c2cccc(Cc3ccc(Cl)cc3)n2)C1 (centres unmarked) [CBK286506]  88.4%
79. c1ccc(NCCOc2nccnc2N2CCCC2)cc1 [CBK115814]  87.9%
80. N=C1NC(=O)C(CC(=O)Nc2cccc([N+](=O)[O-])c2)S1 (centres unmarked) [CBK263944]  87.9%
81. CC(C)NC(=O)c1ccccc1Br [CBK026505]  86.2%
82. CCN1CCC(NCc2ccc(OCC(N)=O)cc2)CC1 [CBK306106]  85.9%
83. CC(C)(C#N)C(C)(C)c1nnn[nH]1 [CBK067072]  85.1%
84. C=CCn1c(Cc2csc(NC(=O)c3cccc(NC(C)=O)c3)n2)n[nH]c1=S [CBK297891]  83.4%
85. CCCn1c(SCC(=O)N2CCOCC2)nc2ccc(Br)cc2c1=O [CBK305929]  83%
86. CS(=O)(=O)Nc1cc(-c2noc([C@@H]3CCCN3C3CCOCC3)n2)ccn1 [CBK288887]  81.8%
87. O=C(Nc1nnc(-c2ccco2)o1)c1ccc2c(c1)CCCC2 [CBK287425]  79.1%
88. O=C(Nc1cccc2cccnc12)c1ccc([N+](=O)[O-])o1 [CBK268007]  61.1%

same assay, conditions: human, hela cells, % viability, bulk resorufin, single well

Work on `CCOC(=O)N1CCC2(CC1)OCc1cc(-c3ccccc3CO)ccc1O2` [CBK060908] yielded a viability at 28.5 h, 10 µM of 103%.
